From US8324130B2, “Synergistic active ingredient combinations” (Bayer Cropscience AG, priority 2006, dated 2012)

Columns and labels:
Type in all cases: in vivo
Myzus persicae = Myzus persicae test (cabbage leaves dipped into active compound preparation)
Procedure: (§1) Solvent: 7 parts by weight of dimethylformamide
(§2) Emulsifier: 2 parts by weight of alkylaryl polyglycol ether
(§3) To produce a suitable preparation of active compound, 1 part by weight of active compound is mixed with the stated amounts of solvent and emulsifier, and the concentrate is diluted with emulsifier-containing water to the desired concentration.
Cabbage leaves (Brassica oleracea) which are heavily infested by the Green peach aphid (Myzus persicae) are treated by being dipped into the preparation of active compound of the desired concentration.
(§4) After the desired period of time, the kill in % is determined. 100% means that all aphids have been killed; 0% means that none of the aphids have been killed. The kill rates determined are entered into Colby's formula (see page 1).

Aphis gossypii = Aphis gossypii test (cotton leaves dipped into active compound preparation)
Procedure: as §1, §2, §3
Cotton leaves (Gossypium hirsutum) which are heavily infested by the cotton aphid (Aphis gossypii) are treated by being dipped into the preparation of active compound of the desired concentration.
as §4

Phaedon cochleariae = Phaedon cochleariae test (cabbage leaves dipped, populated with larvae); settings: 200 ppm, larvae on cabbage leaves
Procedure: as §1, §2, §3
After the desired period of time, the kill in % is determined. 100% means that all beetle larvae have been killed; 0% means that none of the beetle larvae have been killed. The kill rates determined are entered into Colby's formula (see page 1).

SMILES: CN(Cc1ccc(Cl)nc1)C1=CC(=O)OC1 [compound (Ia), 4-[[(6-chloropyridin-3-yl)methyl](methylamino)]furan-2-(5H)-one]
- Kill in % after 1^d (Myzus persicae; 0.16 ppm): 0%
- Kill in % after 1^d (Myzus persicae; 0.8 ppm): 40%
- Kill in % after 6^d (Myzus persicae; 0.8 ppm): 75%
- Kill in % after 6^d (Aphis gossypii; 0.16 ppm): 40%
- Kill in % after 6^d (Aphis gossypii; 0.8 ppm): 70%

SMILES: O=C1C=C(N(Cc2ccc(Cl)nc2)C2CC2)CO1 [compound (Ib), 4-[[(6-chloropyridin-3-yl)methyl] (cyclopropylamino)]furan-2-(5H)-one]
- Kill in % after 1^d (Myzus persicae; 4 ppm): 75%
- Kill in % after 1^d (Aphis gossypii; 0.8 ppm): 30%
- Kill in % after 6^d (Aphis gossypii; 0.8 ppm): 40%
- Kill in % after 3^d (Phaedon cochleariae): 60%

SMILES: N#Cc1c[nH]cc1-c1cccc2c1OC(F)(F)O2 [fludioxonil, reference compound]
- Kill in % after 1^d (Myzus persicae; 100 ppm): 0%
- Kill in % after 6^d (Aphis gossypii; 100 ppm): 0%

SMILES: COCC(=O)N(c1c(C)cccc1C)C(C)C(=O)OC (centres unmarked) [metalaxyl, reference compound]
- Kill in % after 1^d (Myzus persicae; 100 ppm): 0%
- Kill in % after 1^d (Aphis gossypii; 100 ppm): 10%

SMILES: CCCOC(=O)NCCCN(C)C [propamocarb, reference compound]
- Kill in % after 3^d (Phaedon cochleariae): 5%

SMILES: OC(Cc1ccccc1Cl)(Cn1nc[nH]c1=S)C1(Cl)CC1 (centres unmarked) [prothioconazole, reference compound]
- Kill in % after 1^d (Myzus persicae; 100 ppm): 0%
- Kill in % after 6^d (Myzus persicae; 100 ppm): 0%

SMILES: CO/N=C(/C(=O)OC)c1ccccc1CO/N=C(\C)c1cccc(C(F)(F)F)c1 [trifloxystrobin, reference compound]
- Kill in % after 6^d (Aphis gossypii; 100 ppm): 40%
